Patent US4831026A, “2-oxa-isocephem compounds, compositions containing same and processes of using” (Otsuka Pharmaceutical Co., Ltd., priority 1985, dated 1989)
Like-named read-outs stand apart in the source and are kept apart here.

Columns and labels:
[1] = system: S. aureus FDA-209-p; assay: Antimicrobial activity test: MIC by the agar plate dilution method, S. aureus FDA-209-p; format: cell-based, Staphylococcus aureus; conditions: inoculum 1×10^6 cells/ml
Outline: (§1)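 Read-out is the minimal inhibitory concentration, determined in vitro by agar plate dilution with test inocula of 1×10^6 cells/ml.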

[2] = system: E. coli NIHJ; assay: Antimicrobial activity test: MIC by the agar plate dilution method, E. coli NIHJ; format: cell-based; conditions: inoculum 1×10^6 cells/ml
Experimental: In order to investigate the in vitro activity of the under-mentioned compounds against various bacteria, the minimal inhibitory concentration (MIC) values were determined by the agar plate dilution method [see Chemotherapy, 22, 1126-1128 (1974)].
Each test inoculum was adjusted to 1×10^6 cells/ml (O.D., 600 mμ: 0.07-0.16).

[3] = system: E. coli No. 29; assay: Antimicrobial activity test: MIC by the agar plate dilution method, E. coli No. 29; format: cell-based
Outline: as §1

[4] = system: K. pneumoniae NCTC-9632; assay: Antimicrobial activity test: MIC by the agar plate dilution method, K. pneumoniae NCTC-9632; format: cell-based; conditions: inoculum 1×10^6 cells/ml
Outline: as §1

[5] = system: P. mirabilis 1287; assay: Antimicrobial activity test: MIC by the agar plate dilution method, P. mirabilis 1287; format: cell-based; conditions: P. mirabilis 1287; inoculum 1×10^6 cells/ml
Outline: as §1

[6] = system: M. morganii ATCC-25830; assay: Antimicrobial activity test: MIC by the agar plate dilution method, M. morganii ATCC-25830; format: cell-based; conditions: inoculum 1×10^6 cells/ml
Outline: as §1

[7] = system: S. marcescens IFO-12648; assay: Antimicrobial activity test: MIC by the agar plate dilution method, S. marcescens IFO-12648; format: cell-based
Outline: as §1

[8] = system: P. aeruginosa NCTC-10490; assay: Antimicrobial activity test: MIC by the agar plate dilution method, P. aeruginosa NCTC-10490; format: cell-based; conditions: inoculum 1×10^6 cells/ml
Outline: as §1

[9] = E. coli No. 29, inoculum 1×10^6 cells/ml
[10] = S. marcescens IFO-12648, inoculum 1×10^6 cells/ml

In the case of “7-[2-(2-Aminothiazol-4-yl)-2-cyclopropylmethyloxyiminoacetamido]-3-[(1,3,4-thiadiazol-2-yl)thiomethyl]-Δ^3 -O-2-isocephem-4-carboxylic acid trifluoroacetate (syn-isomer) [No. 10]”, the MIC [1] was 0.05 µg/mL, the MIC [2] was ≤ 0.025 µg/mL and the MIC [3, 9] was 0.05 µg/mL. The MIC [4] was 0.05 µg/mL, the MIC [5] was ≤ 0.025 µg/mL and the MIC [6] was ≤ 0.025 µg/mL. It also gave an MIC [7, 10] of 0.05 µg/mL and an MIC [8] of 3.13 µg/mL.
Substance “7-[2-(2-Aminothiazol-4-yl)-2-cyanomethyloxyiminoacetamido]-3-[(1,3,4-thiadiazol-2-yl)thiomethyl]-Δ^3 -O-2-isocephem-4-carboxylic acid trifluoroacetate (syn-isomer) [No. 11]” has an MIC [1] of 0.78 µg/mL, an MIC [2] of 0.39 µg/mL and an MIC [3, 9] of 0.2 µg/mL. The MIC [4] was 0.39 µg/mL, the MIC [5] was 0.05 µg/mL and the MIC [6] was 0.1 µg/mL. It also gave an MIC [7, 10] of 1.56 µg/mL and an MIC [8] of 1.56 µg/mL.
“7-[2-(2-Aminothiazol-4-yl)-2-methoxyiminoacetamido]-3-[(1,4,5,6-tetrahydro-4-methyl-5,6-dioxo-1,2,4-triazin-3-yl)thiomethyl]-Δ^3 -O-2-isocephem-4-carboxylic acid (syn-isomer) [No. 4]” was tested, and the MIC [1] was 0.78 µg/mL, the MIC [2] was ≤ 0.025 µg/mL and the MIC [3, 9] was ≤ 0.025 µg/mL. For the same substance, the MIC [4] was ≤ 0.025 µg/mL, the MIC [5] was ≤ 0.025 µg/mL and the MIC [6] was ≤ 0.025 µg/mL. It also gave an MIC [7, 10] of 0.2 µg/mL and an MIC [8] of 50 µg/mL.
In the case of “7-[2-(2-Aminothiazol-4-yl)-2-cyclopropvlmethyloxyiminoacetamido]-3-[(1,2,3- thiadiazol-5-yl)thiomethyl]-Δ^3 -O-2-isocephem-4-carboxylic acid (syn-isomer) [Example 57]”, the MIC [1] was 0.1 µg/mL, the MIC [2] was 0.2 µg/mL and the MIC [3, 9] was 0.1 µg/mL. The MIC [4] was 0.39 µg/mL, the MIC [5] was 0.1 µg/mL and the MIC [6] was 0.05 µg/mL. It also gave an MIC [7] of 0.78 µg/mL and an MIC [8] of 0.78 µg/mL.
“(6S,7S)-7-[2-(2-Aminothiazol-4-yl)-2cyanomethoxyiminoacetamido]-3-[(1,3,4- thiadiazol-2-yl)thiomethyl]-Δ^3 -O-2-isocephem-4carboxylic acid trifluoroacetate (syn-isomer) [No. 16]” gave an MIC [1] of 0.39 µg/mL, an MIC [2] of 0.39 µg/mL and an MIC [3, 9] of 0.2 µg/mL. For the same substance, the MIC [4] was 0.39 µg/mL, the MIC [5] was 0.1 µg/mL and the MIC [6] was 0.05 µg/mL. The MIC [7] was 0.78 µg/mL and the MIC [8] was 0.39 µg/mL.
With “7-[2-(2-Aminothiazol-4-yl)-2-methoxyiminoacetamido]-3-[(1,3,4-thiadiazol-2-yl)thiomethyl]- Δ^33 -O-2-isocephem-4-carboxylic acid (syn-isomer) [No. 2]” the MIC [1] was 1.56 µg/mL, the MIC [2] was 0.39 µg/mL and the MIC [3] was 0.78 µg/mL. The MIC [4] was 0.78 µg/mL, the MIC [5] was 0.1 µg/mL and the MIC [6] was 0.2 µg/mL. It also gave an MIC [7] of 0.78 µg/mL and an MIC [8] of 3.13 µg/mL.
In the case of “7-[2-(2-Aminothiazol-4-yl)-2-methylthiomethoxyiminoacetamido]-3-[(1,3,4-thiadiazol-2-yl)thiomethyl]-Δ^3 -O-2-isocephem-4-carboxylic acid (syn-isomer) [No. 12]”, the MIC [1] was 0.2 µg/mL, the MIC [2] was ≤ 0.025 µg/mL and the MIC [3, 9] was ≤ 0.025 µg/mL. The MIC [4] was 0.05 µg/mL, the MIC [5] was ≤ 0.025 µg/mL and the MIC [6] was ≤ 0.025 µg/mL. The MIC [7, 10] was 0.1 µg/mL and the MIC [8] was 3.13 µg/mL.
With “7-[2-(2-Aminothiazol-4-yl)-2-allyloxyiminoacetamido]-3-[(1,3,4-thiadiazol- 2-yl)thiomethyl]- Δ^3 -O-2-isocephem-4-carboxylic acid (syn-isomer) [No. 3]” the MIC [1] was 0.78 µg/mL, the MIC [2] was ≤ 0.025 µg/mL and the MIC [3, 9] was ≤ 0.025 µg/mL. For the same substance, the MIC [4] was 0.1 µg/mL, the MIC [5] was ≤ 0.025 µg/mL and the MIC [6] was ≤ 0.025 µg/mL. For the same substance, the MIC [7, 10] was 0.2 µg/mL and the MIC [8] was 12.5 µg/mL.
“Benzhydryl 7-[2-(2-formamidothiazol-4-yl)-2-ethoxyiminoacetamido]-3-[(1,3,4-thiadiazol-2-yl)thiomethyl]-Δ^3 -O-2-isocephem-4-carboxylate (syn-isomer) [Example 30]” showed an MIC [1] of 0.1 µg/mL, an MIC [2] of 0.05 µg/mL and an MIC [3, 9] of 0.1 µg/mL. It also gave an MIC [4] of 0.2 µg/mL, an MIC [5] of 0.2 µg/mL and an MIC [6] of 0.39 µg/mL. It also gave an MIC [7] of 0.39 µg/mL and an MIC [8] of 25 µg/mL.
